According to patent US20150376198A1, “MODULATORS OF VASOPRESSIN RECEPTORS WITH THERAPEUTIC POTENTIAL” (priority 2013, published 2015):
Like-named read-outs stand apart in the source and are kept apart here.

Target: human Arginine Vasopressin Receptor 1a (AVPR1a) (Homo sapiens, UniProt P37288)
Assay: cell-based

Chain of human Arginine Vasopressin Receptor 1a (AVPR1a) (P37288 whole entry): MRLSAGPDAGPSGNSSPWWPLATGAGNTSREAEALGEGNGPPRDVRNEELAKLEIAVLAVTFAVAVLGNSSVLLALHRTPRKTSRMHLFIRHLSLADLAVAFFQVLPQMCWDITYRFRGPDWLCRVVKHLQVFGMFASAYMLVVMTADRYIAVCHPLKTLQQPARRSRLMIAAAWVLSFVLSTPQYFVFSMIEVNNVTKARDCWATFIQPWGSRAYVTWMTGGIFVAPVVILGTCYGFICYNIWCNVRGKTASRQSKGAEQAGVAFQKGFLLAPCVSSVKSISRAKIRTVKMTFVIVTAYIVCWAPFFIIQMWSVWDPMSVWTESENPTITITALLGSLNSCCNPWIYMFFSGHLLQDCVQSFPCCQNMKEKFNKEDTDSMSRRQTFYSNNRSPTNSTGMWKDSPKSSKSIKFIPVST

IC50 (read-out: V1a-R IC50) [µM] | SMILES | IC50 [µM]
1.72 | O=C(c1c(F)cccc1F)N1CCC(C(=O)N2CCCCc3cc(Cl)ccc32)CC1 [Compound 92] | 
12.9 | CS(=O)(=O)c1ccc(C(=O)N2CCC(C(=O)N3CCCCc4cc(Cl)ccc43)CC2)cc1 [Compound 118] | 
0.069 | O=C(C1CCN(c2ncc(C3CC3)cn2)CC1)N1CCCCc2cc(Cl)ccc21 [Compound 209] | 
0.007 | Cc1cc(N2CCC(C(=O)N3CCCCc4cc(Cl)ccc43)CC2)ncc1Cl [Compound 220] | 
0.621 | O=C(c1csc2ccccc12)N1CCC(C(=O)N2CCCCc3cc(Cl)ccc32)CC1 [Compound 119] | 
0.078 | O=C(N1CCC2(CC1)OCc1ccccc12)N1CCCCc2cc(Cl)ccc21 [V:293] | 
0.081 | N#Cc1ccnc(N2CCC(C(=O)N3CCCCc4cc(Cl)ccc43)CC2)n1 [Compound 181] | 
5.28 | N#Cc1cc(C(=O)N2CCC(C(=O)N3CCCCc4cc(Cl)ccc43)CC2)ccc1F [Compound 115] | 
0.028 | N#Cc1ccnc(N2CCC(C(=O)N3CCCCc4cc(Cl)ccc43)CC2)c1 [Compound 177] | 
1.52 | O=C(c1ccc(F)c(F)c1)N1CCC(C(=O)N2CCCCc3cc(Cl)ccc32)CC1 [Compound 90] | 
1.78 | COc1ccc(C(=O)N2CCC(C(=O)N3CCCCc4cc(Cl)ccc43)CC2)cc1 [Compound 85] | 
1.87 | O=C(c1ccc(C(F)(F)F)cc1)N1CCC(C(=O)N2CCCCc3cc(Cl)ccc32)CC1 [Compound 87] | 
0.305 | O=C1Nc2ccccc2C2(CCN(C(=O)N3CCCCc4cc(Cl)ccc43)CC2)O1 [V:292] | 
0.137 | O=C(N1CCC(O)(c2ccccc2)CC1)N1CCCCc2cc(Cl)ccc21 [Compound 133] | 
2.49 | CC(C)(C)C(=O)N1CCC(C(=O)N2CCCCc3cc(Cl)ccc32)CC1 [Compound 82] | 
0.011 | O=C(C1CCN(c2ccc(F)cn2)CC1)N1CCCCc2cc(Cl)ccc21 [Compound 224] | 
0.024 | O=C(C1CCN(c2nc3ccccc3o2)CC1)N1CCCCc2cc(Cl)ccc21 [Compound 213] | 
0.005 | Cc1cnc(N2CCC(C(=O)N3CCCCc4cc(Cl)ccc43)CC2)c(F)c1 [Compound 222] | 
0.011 | COc1ccnc(N2CCC(C(=O)N3CCCCc4cc(Cl)ccc43)CC2)n1 [Compound 175] | 
0.002 | Cc1cc(C)nc(N2CCC(C(=O)N3CCCCc4cc(Cl)ccc43)CC2)n1 [Compound 165] | 
0.13 | N#Cc1cccnc1N1CCC(C(=O)N2CCCCc3cc(Cl)ccc32)CC1 [Compound 111] | 
5.4 | CCC(CC)C(=O)N1CCC(C(=O)N2CCCCc3cc(Cl)ccc32)CC1 [Compound 79] | 
0.017 | Cc1ccnc(N2CCC(C(=O)N3CCCCc4cc(Cl)ccc43)CC2)n1 [Compound 180] | 
0.005 | O=C(C1CCN(c2ccccn2)CC1)N1CCCCc2cc(Cl)ccc21 [Compound 109] | 
0.056 | O=C(C1CCN(c2ncc(Cl)cn2)CC1)N1CCCCc2cc(Cl)ccc21 [Compound 164] | 
1.86 | O=C(c1cccc(F)c1F)N1CCC(C(=O)N2CCCCc3cc(Cl)ccc32)CC1 [Compound 91] | 
0.835 | O=C(c1ccc(Cl)cc1)N1CCC(C(=O)N2CCCCc3cc(Cl)ccc32)CC1 [Compound 86] | 
0.08 | O=C(N1CCN(c2ccccn2)CC1)N1CCCCc2cc(Cl)ccc21 [Compound 122] | 
1.82 | O=C(c1ccccc1)N1CCC(C(=O)N2CCCCc3cc(Cl)ccc32)CC1 [Compound 83] | 
0.216 | O=C(C1CCN(c2ccnc(Cl)c2)CC1)N1CCCCc2cc(Cl)ccc21 [Compound 176] | 

The next lines start with the compound.

SMILES | IC50 (read-out: V1a-R IC50) [µM] | IC50 [µM]
C#CCN(C(=O)C1CCN(c2nc(C)cc(C)n2)CC1)c1ccc(Cl)cc1 [Compound 201] | 0.028 | 
CCCN(C(=O)C1CCN(c2nc(C)cc(C)n2)CC1)c1ccc(Cl)cc1 [Compound 198] | 0.284 | 
O=C(C1CCN(c2ncc(Cl)cc2F)CC1)N(CC1CC1)c1ccc(Cl)cc1 [Compound 219] | 0.061 | 
O=C(C1CCN(c2ncc3ccccc3n2)CC1)N(CC1CC1)c1ccc(Cl)cc1 [Compound 204] | 0.097 | 
O=C(N1CCN(c2ccc(C(F)(F)F)cc2)CC1)N1CCCCc2cc(Cl)ccc21 [Compound 132] | 0.029 | 
Cc1ccnc(N2CCN(C(=O)N(CC3CC3)c3ccc(Cl)cc3)CC2)c1 [Compound 161] | 0.016 | 
O=C(C1CCN(c2ncc(C3CC3)cn2)CC1)N(CC1CC1)c1ccc(Cl)cc1 [Compound 202] | 0.348 | 
O=C(N1CCN(c2ncccc2Cl)CC1)N1CCCCc2cc(Cl)ccc21 [Compound 125] | 0.057 | 
Cc1ccc(Cl)cc1N1CCN(C(=O)N2CCCCc3cc(Cl)ccc32)CC1 [Compound 130] | 0.279 | 
O=C(N1CCN(c2cc(Cl)cc(Cl)c2)CC1)N1CCCCc2cc(Cl)ccc21 [Compound 129] | 0.205 | 
O=C(N1CCN(c2ncccn2)CC1)N1CCCCc2cc(Cl)ccc21 [Compound 123] | 0.256 | 
O=C(C1CCN(c2ncc(C(F)(F)F)cn2)CC1)N(CC1CC1)c1ccc(Cl)cc1 [Compound 203] | 0.57 | 
Cc1cc(C)nc(N2CCN(C(=O)N(CC3CC3)c3ccc(Cl)cc3)CC2)n1 [Compound 158] | 0.024 | 
Cc1nc(N2CCC(C(=O)N(CC3CC3)c3ccc(Cl)cc3)CC2)c2ccccc2n1 [Compound 191] | 0.074 | 
Cc1cccnc1N1CCN(C(=O)N2CCCCc3cc(Cl)ccc32)CC1 [Compound 124] | 0.04 | 
COc1ccnc(N2CCC(C(=O)N(CC3CC3)c3ccc(Cl)cc3)CC2)n1 [Compound 172] | 0.017 | 

SMILES | IC50 (read-out: V1a-R IC50) [µM] | IC50 [µM]
O=C(C1CCN(c2ncccc2F)CC1)N(CC1CC1)c1ccc(Cl)cc1 [Compound 140] |  | 0.015
Cc1cc(C)nc(N2CCC(C(=O)N(CC3CC3)c3ccc(Cl)cc3)CC2)n1 [Compound 151] | 0.008 | 
N#Cc1ccnc(N2CCC(C(=O)N(CC3CC3)c3ccc(Cl)cc3)CC2)c1 [Compound 173] | 0.063 | 
Cc1ccc(N2CCC(C(=O)N(CC3CC3)c3ccc(Cl)cc3)CC2)nc1 [Compound 149] |  | 0.02
O=C(C1CCN(c2nccc(C(F)(F)F)n2)CC1)N(CC1CC1)c1ccc(Cl)cc1 [Compound 171] | 0.146 | 
Cc1nc(N2CCC(C(=O)N(CC3CC3)c3ccc(Cl)cc3)CC2)ncc1F [Compound 189] | 0.048 | 
Cc1cc(C)nc(N2CCC(C(=O)N3CCCC(C)(O)c4cc(Cl)ccc43)CC2)n1 (stereo not shown) [Compound 197] | 0.134 | 
O=C(C1CCN(c2ncc(F)cn2)CC1)N(CC1CC1)c1ccc(Cl)cc1 [Compound 168] | 0.091 | 
O=C(C1CCN(C(=O)C23CC4CC(CC(C4)C2)C3)CC1)N1CCCCc2cc(Cl)ccc21 [Compound 81] | 8.08 | 
N#Cc1ccnc(N2CCC(C(=O)N(CC3CC3)c3ccc(Cl)cc3)CC2)n1 [Compound 170] | 0.096 | 
Cc1cc(C)nc(N2CCC(C(=O)N(CC3CCC3)c3ccc(Cl)cc3)CC2)n1 [Compound 200] | 0.229 | 
Cc1cc(C)nc(N2CCC(C(=O)N3CCCC(=O)c4cc(Cl)ccc43)CC2)n1 [Compound 194] | 0.158 | 
O=C(C1CCN(c2ncnc3ccc(F)cc23)CC1)N(CC1CC1)c1ccc(Cl)cc1 [Compound 205] | 0.074 | 
O=C(C1CCN(c2cc(C(F)(F)F)ccn2)CC1)N(CC1CC1)c1ccc(Cl)cc1 [Compound 179] |  | 0.037
O=C(C1CCN(c2ncccc2Cl)CC1)N(CC1CC1)c1ccc(Cl)cc1 [Compound 144] | 0.023 | 
